Laboratory results: US20250275978A1 (Cardiff Oncology, Inc., priority 2024, published 2025)
Where “and” joins values, the source holds several entries; their conditions need not be identical. Identical values can stand only once.

How the values were obtained:
[1] = test system: panel of 63 kinases; settings: low or no activity; cited from earlier work
[2] = test system: RAS^WT colorectal cancer patient derived xenograft (PDX) models; test: Example 2: antitumor activity in RAS^WT CRC PDX models, 18-19 days; type: in vivo, mice
Description: Tumor volumes (TV) were measured twice a week, and % tumor volume change (TVC) from baseline was calculated as follows: (TVi/TV0−1)×100. Tumor stasis defined as TVC between 0 and 20%, and tumor regression as TVC less than 0% at last measurement. Results are presented as mean±SEM.

[3] = test system: RAS^WT CRC patient-derived xenograft (PDX) models; test: Example 1: antitumor activity in RAS^WT CRC PDX models, 18 days; type: in vivo, nude mice
Description: Twenty RAS^WT CRC PDXs were selected and engrafted in nude mice. […] Tumor volume change from baseline (TVC) was calculated as 100%×(Vt−Vo)/Vo and tumor growth inhibition (TGI) as 100%×(TVCcontrol−TVCtreated)/TVCcontrol. Tumor regression was defined as TVCD18<0 and tumor stasis […].

[4] = mice; cited from earlier work
[5] = test system: panel of 296 kinases, including other PLK members; settings: cited from earlier work
[6] = test system: cell lines, both from solid as well as hematologic tumors; settings: large number of cell lines; cited from earlier work
[7] = rodent and nonrodent species; cited from earlier work
[8] = test system: AML cell lines; settings: cited from earlier work
[9] = biological target: T1, CYP1A2 (Homo sapiens, UniProt P05177); settings: human liver microsomes; cited from earlier work
T1 construct: was investigated using human liver microsomes; from tissue; host or cells: human liver microsomes
T1 sequence (P05177 1-516): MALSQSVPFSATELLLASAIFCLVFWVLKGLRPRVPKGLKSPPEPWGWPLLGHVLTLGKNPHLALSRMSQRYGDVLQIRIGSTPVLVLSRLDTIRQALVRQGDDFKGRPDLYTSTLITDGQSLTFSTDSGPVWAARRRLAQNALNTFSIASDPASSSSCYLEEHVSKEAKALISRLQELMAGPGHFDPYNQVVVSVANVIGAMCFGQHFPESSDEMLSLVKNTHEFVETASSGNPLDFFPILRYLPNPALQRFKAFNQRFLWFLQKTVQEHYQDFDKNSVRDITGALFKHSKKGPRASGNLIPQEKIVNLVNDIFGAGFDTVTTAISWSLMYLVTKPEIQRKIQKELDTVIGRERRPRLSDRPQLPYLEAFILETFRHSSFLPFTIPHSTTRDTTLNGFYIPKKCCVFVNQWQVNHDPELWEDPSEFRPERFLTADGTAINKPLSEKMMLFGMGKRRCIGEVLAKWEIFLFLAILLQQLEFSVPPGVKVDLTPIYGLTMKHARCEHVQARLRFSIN

[10] = test system: patients with advanced/metastatic solid tumors; settings: cited from earlier work
[11] = 6 PDXs with acquired resistance to cetuximab
[12] = 7 PDXs with intrinsic resistance to cetuximab

In the case of CN1CCN(c2ccc(OC(F)(F)F)c(Nc3ncc4c(n3)-c3c(c(C(N)=O)nn3CCO)CC4)c2)CC1 [onvansertib, 1-(2-hydroxyethyl)-8-{[5-(4-methylpiperazin-1-yl)-2-(trifluoromethoxy)phenyl]amino}-4,5-dihydro-1H-pyrazolo[4,3-h]quinazoline-3-carboxamide], the IC50 [1] is listed as over 500 nM, the “models with tumor growth inhibition” value [2, 11] is listed as “one” and the “models with tumor stasis or regression” value [2, 11] is listed as 4/6. The “models with tumor growth inhibition” value ([2]; 7 PDXs sensitive to cetuximab) was “two”, the “models with tumor stasis or regression” value ([2]; 7 PDXs sensitive to cetuximab, stasis TVC 0-20%) was “five and 5/7” and the “models with tumor growth inhibition” value [2, 12] was “two”. For the same molecule, the “models with tumor stasis or regression” value [2, 12] was 5/7, the “models with potent antitumor activity” value ([2]; 13 PDX models resistant to cetuximab, 69%) was 9/13 and the “models with tumor regression” value ([2]; all 20 models) was 11 models. For the same molecule, the “models with tumor stasis” value ([2]; all 20 models, TVC between 0 and 20%) was 3 models, the “PDXs with potent anti-tumor activity (tumor regression or tumor stasis)” value ([3]; 20 PDXs, stasis 0≤TVCD18<100, 85%) was 17 out of 20 and the “median TGI on Day 18” value ([3]; CetuxR PDXs, IQR 74-124) was 108. The “median TGI on Day 18” value ([3]; CetuxS PDXs, IQR 76-103) was 102, the “PDXs with tumor regression (TVCD18<0)” value ([3]; all 20 PDXs, Day 18) was 11 PDXs and the “PDXs with tumor stasis (0≤TVCD18<100)” value ([3]; all 20 PDXs, Day 18) was 6 PDXs. The “concentrations relevant to achieve significant anti-tumoral activity” value [4] was about 1 µM, the “Specificity for PLK1 among a panel of 296 kinases” value [5] was “high specificity” and the “Activity in proliferation assays” value [6] was “low nanomolar activity”. The oral bioavailability [7] was “good oral bioavailability”, the “Inhibition of cell proliferation” value [8] was “nanomolar concentrations” and the “Inhibitory effects against CYP1A2” value [9] was “No significant inhibitory effects”. The DLTs observed ([10]; 36 mg/m^2/day, 4 patients treated) was 2 DLTs, the “patients who developed DLTs” value ([10]; 48 mg/m^2/day) was 2 of 3 and the “DLTs at the first 3 dose levels” value ([10]; 6, 12, and 24 mg/m^2/day) was “No DLTs”. The “best observed treatment response” value ([10]; in vivo) was “stable disease (SD)”, the “maximum tolerated dose (MTD)” value ([10]; oral, 5 consecutive days every 3 weeks) was 24 mg/m^2/day and the “recovery from hematologic toxicities” value ([10]; reversible toxicities) was at most 3 weeks.
